Source: patent US20250333419A1, “BICYCLIC COMPOUNDS AS INHIBITORS OF WRN” (Incyte Corporation, priority 2023, published 2025)

Legend:
WRN [1] = target: T1, WRN (Homo sapiens, UniProt Q14191); assay: WRN Helicase activity assay (fluorescence DNA unwinding); format: biochemical; settings: IC50, 1-hr pre-incubation with enzyme; geometric means of at least 2 independent replicates
T1 construct: A His-tagged construct of WRN (AA S2-S1235) was produced and used for the ATPase assay; His; made in house; host or cells: Sf9 insect cells (baculovirus)
T1 sequence (Q14191 2-1235): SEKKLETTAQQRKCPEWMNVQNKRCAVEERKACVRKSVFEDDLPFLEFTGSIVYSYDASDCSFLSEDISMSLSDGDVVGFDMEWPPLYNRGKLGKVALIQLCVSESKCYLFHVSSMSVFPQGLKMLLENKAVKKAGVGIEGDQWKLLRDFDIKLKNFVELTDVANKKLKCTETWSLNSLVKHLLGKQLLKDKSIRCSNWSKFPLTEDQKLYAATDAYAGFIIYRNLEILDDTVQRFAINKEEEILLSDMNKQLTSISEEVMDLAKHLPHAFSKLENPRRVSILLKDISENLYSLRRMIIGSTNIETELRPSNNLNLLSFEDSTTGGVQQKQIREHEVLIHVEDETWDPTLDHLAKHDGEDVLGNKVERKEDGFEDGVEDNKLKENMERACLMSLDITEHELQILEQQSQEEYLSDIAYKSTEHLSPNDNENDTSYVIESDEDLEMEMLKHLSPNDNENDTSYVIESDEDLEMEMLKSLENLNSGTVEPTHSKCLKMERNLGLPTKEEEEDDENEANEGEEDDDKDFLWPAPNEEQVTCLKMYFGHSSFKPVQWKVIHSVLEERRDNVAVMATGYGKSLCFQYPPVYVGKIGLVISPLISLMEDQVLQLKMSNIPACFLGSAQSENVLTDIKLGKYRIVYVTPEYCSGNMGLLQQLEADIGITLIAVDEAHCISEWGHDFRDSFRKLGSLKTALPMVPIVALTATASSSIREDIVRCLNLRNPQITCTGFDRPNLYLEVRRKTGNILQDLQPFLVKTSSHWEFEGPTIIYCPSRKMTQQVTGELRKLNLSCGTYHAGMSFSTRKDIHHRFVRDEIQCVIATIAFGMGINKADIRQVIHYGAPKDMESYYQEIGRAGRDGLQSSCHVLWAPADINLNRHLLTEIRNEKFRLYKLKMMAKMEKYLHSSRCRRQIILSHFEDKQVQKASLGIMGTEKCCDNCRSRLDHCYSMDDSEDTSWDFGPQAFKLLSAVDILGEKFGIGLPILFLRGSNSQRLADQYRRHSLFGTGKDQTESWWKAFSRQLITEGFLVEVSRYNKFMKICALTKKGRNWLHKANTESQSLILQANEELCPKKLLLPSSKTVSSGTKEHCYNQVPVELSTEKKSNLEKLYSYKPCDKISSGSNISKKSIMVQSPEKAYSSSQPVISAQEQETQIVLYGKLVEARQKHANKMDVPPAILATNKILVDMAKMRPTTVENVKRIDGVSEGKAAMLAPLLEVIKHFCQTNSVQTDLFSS
Description: Compounds of the examples were tested for WRN helicase activity. DNA encoding the target protein, 6×HIS-TEV-WRN-517-945, was produced, cloned and transfected as detailed in Example D. To determine the inhibitory properties of the compounds, a 384 wells plate-based Helicase assay was set up to measure the extent of DNA unwinding (Helicase) activity of WRN. The WRN Helicase assay was designed to measure increase in fluorescence signal using a fluorescence based, donor-quencher paired forked dsDNA oligomer substrate (custom synthesis from Sigma-Aldrich) prepared by annealing equal amounts of oligo GPat-1 ([BHQ2][…]) and oligo GPat-2 ([…][TAM]). Continuous measurement of fluorescent signal was used to optimize the buffer conditions, concentration of enzyme (WRN), concentration of substrates (ATP & dsDNA), and the linearity of the Helicase reaction. All solutions were prepared in the following assay buffer: 50 mM Tris-HCl, pH-7.5, 2 mM MgCl2, 50 mM NaCl, 1 mM EGTA, 0.01% P-20, 0.05% BSA, and 2 mM DTT prepared with nuclease free water.
A serial dilution (1:3 scheme) of the compounds was prepared in neat DMSO and 100 nL of the compounds was dispensed in the Greiner black low volume (Greiner #784076) 384 wells assay plate. An 1-hr pre-incubation of the compounds with enzyme was included. A His-tagged construct of WRN (AA S2-S1235) was produced and used for the ATPase assay. Maximum inhibition control wells were set up with the addition of only assay buffer, and no inhibition control wells were set up with neat DMSO without test compounds. The reaction was initiated by addition of 5 μL substrate mix (200 μM ultrapure ATP, and 50 nM dsDNA prepared in assay buffer) and incubated at 25° C. for 35 min. A typical Helicase reaction consists of 25 nM forked dsDNA, 100 μM ATP, and 1 nM WRN prepared in assay buffer. The WRN Helicase reaction was quenched by the addition of 5 μL ‘STOP’ solution containing 100 mM EDTA (final EDTA concentration 33.33 mM) prepared in assay buffer. The plates were read on BMG PHERAstar FSX using 540/590 module to measure an increase of fluorescence. Data analysis was carried out using the Genedata software following % of control normalization. Fitting parameters include dose response IC50, Hill slope (n), maximum inhibition (S∞), and minimum inhibition (S0). The reported IC50 values for compounds in this invention are the geometric means of at least 2 independent replicates.

WRN [2] = target: T1, WRN; assay: WRN ATPase activity assay (ADP-Glo); format: biochemical; settings: IC50, 1-hr pre-incubation with enzyme; geometric means of at least 2 independent replicates
Description: Compounds of the Examples were tested for WRN ATPase activity. WRN ATPase activity catalyzes ATP hydrolysis to produce ADP and phosphate. DNA encoding the target protein, 6×HIS-TEV-WRN-517-945, was produced, cloned and transfected as detailed in Example D. The amount of ADP produced was measured using ADP-Glo™ Kinase Assay kit from Promega Corporation in a Greiner white regular volume 384 wells assay plate (Greiner #781075). Data was normalized to a standard curve generated using various ADP concentrations and the corresponding luminescent signal intensities at each concentration. The assay conditions were optimized for enzyme concentration (WRN), substrate concentrations (ATP & dsDNA), and the linearity of the ATPase reaction, in the following assay buffer: 50 mM Tris-HCl, pH-7.5, 2 mM MgCl2, 50 mM NaCl, 1 mM EGTA, 0.01% P-20, 0.05% BSA, and 2 mM DTT prepared with nuclease free water.
A serial dilution (1:3 scheme) of the compounds were prepared in neat DMSO, with 100 nL of the compounds dispensed in the 384 wells assay plate. An 1-hr pre-incubation of the compounds with enzyme was included. A His-tagged construct of WRN (AA S2-S1235) was produced and used for the ATPase assay. Maximum inhibition control wells were set up with the addition of only assay buffer, and no inhibition control wells were set up with neat DMSO without test compounds. The reaction was initiated by addition of 5 μL substrate mix (200 μM ultrapure ATP, and 50 nM dsDNA prepared in assay buffer) and incubated at 25° C. for 35 min. A forked dsDNA oligomer substrate was prepared by annealing equal amounts of oligo GPat-1 ([BHQ2][…]) and oligo GPat-2 ([…][TAM]) and was used as dsDNA substrate for WRN ATPase assay. A typical ATPase reaction consists of 25 nM forked dsDNA, 100 μM ATP, and 1 nM WRN prepared in assay buffer. The WRN ATPase reaction was stopped by the addition of 5 μL of ADP-Glo Reagent from ADP-Glo™ Kinase Assay kit and incubated for 40 min to deplete the unreacted ATP. Afterwards, 5 μL of Kinase Detection Reagent from the ADP-Glo™ Kinase Assay kit was added and incubated for 1 hr for the development of luminescence signal.
Luminesce signals were measured on BMG PHERAstar FSX using luminescence protocol. Data analysis was carried out using Genedata software following % of control normalization. Fitting parameters include dose response IC50, Hill slope (n), maximum inhibition (S∞), and minimum inhibition (S0). The reported IC50 values for compounds in this invention are the geometric means of at least 2 independent replicates.

SMILES	IC50 (WRN [1])	IC50 (WRN [2])
C=CC(=O)Nc1ccccc1-c1c(CC)n(CC(=O)Nc2ccc(C(F)(F)F)cc2Cl)c2nc(C3=CCOCC3)nn2c1=O [Example 16, N-(2-(4-(2-((2-Chloro-4-(trifluoromethyl)phenyl)amino)-2-oxoethyl)-2-(3,6-dihydro-2H-pyran-4-yl)-5-ethyl-7-oxo-4,7-dihydro-[1,2,4]triazolo[1,5-a]pyrimidin-6-yl)phenyl)acrylamide]	< 100 nM	< 100 nM
C=CC(=O)Nc1ccccc1-c1c(CC)n(CC(=O)Nc2ccc(C(F)(F)F)cc2)c2nc(C3CC3)nn2c1=O [Example 17, N-(2-(2-Cyclopropyl-5-ethyl-7-oxo-4-(2-oxo-2-((4-(trifluoromethyl)phenyl)amino)ethyl)-4,7-dihydro-[1,2,4]triazolo[1,5-a]pyrimidin-6-yl)phenyl)acrylamide]	< 100 nM	< 100 nM
C=CC(=O)Nc1ccccc1-c1c(CC)n(CC(=O)Nc2ccc(C(F)(F)F)cc2)c2nc(C)nn2c1=O [Example 18, N-(2-(5-Ethyl-2-methyl-7-oxo-4-(2-oxo-2-((4-(trifluoromethyl)phenyl)amino)ethyl)-4,7-dihydro-[1,2,4]triazolo[1,5-a]pyrimidin-6-yl)phenyl)acrylamide]	500 to 1000 nM	500 to 1000 nM
C=CC(=O)Nc1ccccc1-c1c(CC)n(CC(=O)Nc2ccc(C(F)(F)F)cc2)c2nc(C3CCC3)nn2c1=O [Example 19, N-(2-(2-Cyclobutyl-5-ethyl-7-oxo-4-(2-oxo-2-((4-(trifluoromethyl)phenyl)amino)ethyl)-4,7-dihydro-[1,2,4]triazolo[1,5-a]pyrimidin-6-yl)phenyl)acrylamide]	100 to 500 nM	100 to 500 nM
C=CC(=O)Nc1ccccc1-c1c(CC)n(CC(=O)Nc2ccc(C(F)(F)F)cc2)c2nc(C3CCCCC3)nn2c1=O [Example 20, N-(2-(2-Cyclohexyl-5-ethyl-7-oxo-4-(2-oxo-2-((4-(trifluoromethyl)phenyl)amino)ethyl)-4,7-dihydro-[1,2,4]triazolo[1,5-a]pyrimidin-6-yl)phenyl)acrylamide]	100 to 500 nM	100 to 500 nM
C=CC(=O)Nc1ccccc1-c1c(CC)n(CC(=O)Nc2ccc(C(F)(F)F)cc2Cl)c2nc(C(C)C)nn2c1=O [Example 21, N-(2-(4-(2-((2-Chloro-4-(trifluoromethyl)phenyl)amino)-2-oxoethyl)-5-ethyl-2-isopropyl-7-oxo-4,7-dihydro-[1,2,4]triazolo[1,5-a]pyrimidin-6-yl)phenyl)acrylamide]	100 to 500 nM	100 to 500 nM
C=CC(=O)Nc1ccccc1-c1c(CC)n(CC(=O)Nc2ccc(C(F)(F)F)cc2)c2nc(-c3cccs3)nn2c1=O [Example 22, N-(2-(5-Ethyl-7-oxo-4-(2-oxo-2-((4-(trifluoromethyl)phenyl)amino)ethyl)-2-(thiophen-2-yl)-4,7-dihydro-[1,2,4]triazolo[1,5-a]pyrimidin-6-yl)phenyl)acrylamide]	< 100 nM	< 100 nM
C=CC(=O)Nc1ccccc1-c1c(CC)n(CC(=O)Nc2ccc(C(F)(F)F)cc2)c2nc(C3CCOCC3)nn2c1=O [Example 23, N-(2-(5-Ethyl-7-oxo-4-(2-oxo-2-((4-(trifluoromethyl)phenyl)amino)ethyl)-2-(tetrahydro-2H-pyran-4-yl)-4,7-dihydro-[1,2,4]triazolo[1,5-a]pyrimidin-6-yl)phenyl)acrylamide]	500 to 1000 nM	100 to 500 nM
C=CC(=O)Nc1ccccc1-c1c(CC)n(CC(=O)Nc2ccc(C(F)(F)F)cc2)c2nc(C3CCNCC3)nn2c1=O [Example 24, N-(2-(5-Ethyl-7-oxo-4-(2-oxo-2-((4-(trifluoromethyl)phenyl)amino)ethyl)-2-(piperidin-4-yl)-4,7-dihydro-[1,2,4]triazolo[1,5-a]pyrimidin-6-yl)phenyl)acrylamide]	100 to 500 nM	100 to 500 nM
C=CC(=O)Nc1ccccc1-c1c(CC)n(CC(=O)Nc2ccc(C(F)(F)F)cc2)c2nc(C3CCN(C(=O)C=C)CC3)nn2c1=O [Example 25, N-(2-(2-(1-Acryloylpiperidin-4-yl)-5-ethyl-7-oxo-4-(2-oxo-2-((4-(trifluoromethyl)phenyl)amino)ethyl)-4,7-dihydro-[1,2,4]triazolo[1,5-a]pyrimidin-6-yl)phenyl)acrylamide]	< 100 nM	< 100 nM
